# Tested on: Artemia salina
# Test: Toxicity in Artemia salina after 24 hrs
# Assay type: organism-based
# Settings: in vivo
row,Compound,LD50
1,C#CC(=O)/C=C/CCCCCC/C=C\CCCCC#CC(O)C#C/C=C/CC/C=C\CCCCCCCCCCCCC/C=C/C(=O)C#C (centres undefined),0.18 ppm
2,C#CCCCCCCCCCCCCCCCC/C=C\CCCCC#CC(=O)C#CCCCC/C=C\CCCCCC/C=C/C(O)C#C (centres undefined),6.3 ppm
3,C#CCCCCCCCCCCCCCCCC/C=C\CC/C=C/C#CC(=O)C#CCCCC/C=C\CCCCCC/C=C/C(O)C#C (centres undefined),1 ppm
4,C#C/C=C\CCCCCCCCCCCCCC/C=C\CCCCC#CC(O)C#CCCCC/C=C\CCCCCC/C=C/C(=O)C#C (centres undefined),0.5 ppm
5,C#CCCCCCCCCCCCCCCCC/C=C\CC/C=C\C#CC(O)C#CCCCC/C=C\CCCCCC/C=C/C(O)C#C (centres undefined) [ISOPETROFORMYNE 3],0.26 ppm
6,C#CCCCCCCCCCCCCCCCC/C=C\CC/C=C\C#CC(O)C#CCCCC/C=C\CCCCCCCCC(O)C#C (centres undefined),6.8 ppm
7,C#C/C=C\CCCCCCCCCCCCCC/C=C\CC/C=C\C#CC(O)C#CCCCC/C=C\CCCCCC/C=C/C(O)C#C (centres undefined) [ISOPETROFORMYNE 4],0.6 ppm
8,C#CC(=O)/C=C/CC/C=C\CCCC/C=C\CCC#CC(O)C#C/C=C/CC/C=C\CCCCCCCCCCCCC/C=C/C(O)C#C (centres undefined) [PETROFORMYNE 8],0.77 ppm
9,C#CC(=O)/C=C/CC/C=C\CCCC/C=C\CCC#CC(O)C#C/C=C/CC/C=C\CCCCCCCCCCCCC/C=C/C(=O)C#C (centres undefined),5 ppm

# Source: ChEMBL document CHEMBL1159246, “Further Structural Studies on the Petroformynes” (J Nat Prod, 1995)
